Assay results from patent publication US7329657B2, “Indazolyl-substituted pyrroline compounds as kinase inhibitors” (Ortho-McNeil Pharmaceutical, Inc., priority 2000, dated 2008).

How the values were obtained:
Assay type in all cases: biochemical
[1] = target: T1, recombinant rabbit GSK-3β protein (Oryctolagus cuniculus, UniProt G1T8E2); assay: Glycogen Synthase Kinase-3 Assay; conditions: PPI-2 substrate, 33P-ATP, 90 minutes at 30° C.
T1 construct: purchased New England Biolabs
Description: Compounds were tested for the ability to inhibit recombinant rabbit GSK-3β protein using the following protocol. The test compound was added to a reaction mixture containing Protein phosphatase inhibitor-2 (PPI-2) (Calbiochem) (45 ng), rabbit GSK-3β protein (New England Biolabs) (0.75 units) and ^33P-ATP (1 μCi) in 50 mM Tris-HCl (pH 8.0), 10 mM MgCl2, 0.1% BSA, 1 mM DTT and 100 μM Sodium Vanadate. The mixture was reacted for 90 minutes at 30° C. to allow phosphorylation of the PPI-2 protein and then the protein in the reaction was precipitated using 10% TCA. The precipitated protein was collected on filter plates (MultiScreen-DV/Millipore), which were subsequently washed. Finally, the radioactivity was quantified using a TopCount Scintillation Counter (Packard).

PKC β-II = PKC β-II (Homo sapiens, UniProt P05771); assay: Protein Kinase C Histone-Based Assay, β-II isoform; conditions: histone III substrate, 30 μM ATP, 10 min at 30° C.; read-out: PKC Activity (IC50 μM, Histone Based Assay) Beta II
Description: (§1) Compounds were evaluated for PKC selectivity using histone III as the substrate. […] The reaction was incubated for 10 min at 30° C. Reactions were terminated by TCA precipitation and spotting on Whatman P81 filters. Filters were washed in 75 mM phosphoric acid and the radioactivity quantified by liquid scintillation counting.

PKC γ = PKC γ (Homo sapiens, UniProt P05129); assay: Protein Kinase C Histone-Based Assay, γ isoform; conditions: histone III substrate, 30 μM ATP, 10 min at 30° C.; read-out: PKC Activity (IC50 μM, Histone Based Assay) Gamma
Description: as §1

PKC α = PKC α (Homo sapiens, UniProt P17252); assay: Protein Kinase C Histone-Based Assay, α isoform; conditions: histone III substrate, 30 μM ATP, 10 min at 30° C.; read-out: PKC Activity (IC50 μM, Histone Based Assay) Alpha
Description: as §1

T1 sequence (G1T8E2 1-432): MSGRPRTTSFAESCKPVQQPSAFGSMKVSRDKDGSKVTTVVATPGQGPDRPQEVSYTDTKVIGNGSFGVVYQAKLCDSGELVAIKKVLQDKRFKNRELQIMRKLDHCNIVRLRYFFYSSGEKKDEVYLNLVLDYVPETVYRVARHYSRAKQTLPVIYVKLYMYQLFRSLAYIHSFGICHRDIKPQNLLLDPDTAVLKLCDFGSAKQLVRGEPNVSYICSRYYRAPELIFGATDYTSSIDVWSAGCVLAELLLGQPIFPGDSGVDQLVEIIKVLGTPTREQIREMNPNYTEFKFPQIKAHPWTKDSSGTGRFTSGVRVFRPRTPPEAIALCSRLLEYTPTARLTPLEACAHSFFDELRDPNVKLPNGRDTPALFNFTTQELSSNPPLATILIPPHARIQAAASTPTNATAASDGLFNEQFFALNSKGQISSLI
Sequence of PKC β-II (P05771 1-673 isoform P05771-2): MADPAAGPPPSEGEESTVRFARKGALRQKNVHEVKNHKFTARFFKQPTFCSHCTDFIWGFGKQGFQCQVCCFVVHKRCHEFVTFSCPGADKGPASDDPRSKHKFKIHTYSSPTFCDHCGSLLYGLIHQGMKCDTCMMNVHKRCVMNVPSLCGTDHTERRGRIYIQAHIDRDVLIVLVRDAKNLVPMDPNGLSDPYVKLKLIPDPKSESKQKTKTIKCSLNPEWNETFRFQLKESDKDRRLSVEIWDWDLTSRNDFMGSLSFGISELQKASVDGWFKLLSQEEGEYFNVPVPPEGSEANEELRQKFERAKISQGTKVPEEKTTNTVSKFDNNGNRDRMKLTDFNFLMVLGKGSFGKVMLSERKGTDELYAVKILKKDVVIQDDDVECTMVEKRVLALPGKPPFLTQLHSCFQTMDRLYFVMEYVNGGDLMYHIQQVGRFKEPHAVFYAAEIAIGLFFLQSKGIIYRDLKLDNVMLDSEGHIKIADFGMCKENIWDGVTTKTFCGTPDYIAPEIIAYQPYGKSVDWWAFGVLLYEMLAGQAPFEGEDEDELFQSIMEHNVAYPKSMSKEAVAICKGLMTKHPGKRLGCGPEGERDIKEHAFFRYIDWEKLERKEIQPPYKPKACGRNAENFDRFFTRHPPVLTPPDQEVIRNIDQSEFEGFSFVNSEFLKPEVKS

SMILES | IC50 [1] [µM] | IC50 (PKC β-II) [µM] | IC50 (PKC γ) [µM] | IC50 (PKC α) [µM]
COCCCn1nc(C2=C(c3cn(-c4cccnc4)c4ccccc34)C(=O)NC2=O)c2ccccc21 [Compound 117, 3-[1-(3-methoxypropyl)-1H-indazol-3-yl]-4-[1-(3-pyridinyl)-1H-indol-3-yl]-1H-pyrrole-2,5-dione] | 0.07 | 0.034 |  | 
O=C1NC(=O)C(c2nn(CCCCO)c3ccccc23)=C1c1cn(-c2cccnc2)c2ccccc12 [Compound 111, 3-[1-(4-hydroxybutyl)-1H-indazol-3-yl]-4-[1-(3-pyridinyl)-1H-indol-3-yl]-1H-pyrrole-2,5-dione] | 0.04 |  |  | 
CNCCCn1nc(C2=C(c3cn(C)c4ccc(Cl)cc34)C(=O)NC2=O)c2ccccc21 [Compound 80, 3-(5-chloro-1-methyl-1H-indol-3-yl)-4-[1-[3-(methylamino)propyl]-1H-indazol-3-yl]-1H-pyrrole-2,5-dione] | 0.051 | 0.018 | 0.512 | 0.328
O=C1NC(=O)C(c2nn(CCCO)c3ccccc23)=C1c1cn(-c2cncc3ccccc23)c2ccccc12 [Compound 105, 3-[1-(3-hydroxypropyl)-1H-indazol-3-yl]-4-[1-(4-isoquinolinyl)-1H-indol-3-yl]-1H-pyrrole-2,5-dione] | 0.073 |  |  | 
CC(C)(C)OC(=O)NCCCn1nc(C2=C(c3cn(-c4cccnc4)c4ccccc34)C(=O)NC2=O)c2ccccc21 [Compound 115, [3-[3-[2,5-dihydro-2,5-dioxo-4-[1-(3-pyridinyl)-1H-indol-3-yl]-1H-pyrrol-3-yl]-1H-indazol-1-yl]propyl]-carbamic acid 1,1-dimethylethyl ester] | 0.055 |  |  | 
O=CCCn1nc(C2=C(c3cn(-c4cccnc4)c4ccccc34)C(=O)NC2=O)c2ccccc21 [Compound 112, 1H-indazole-1-propanal, 3-[2,5-dihydro-2,5-dioxo-4-[1-(3-pyridinyl)-1H-indol-3-yl]-1H-pyrrol-3-yl]-1H-pyrrole-2,5-dione] | 0.115 |  |  | 
O=C1NC(=O)C(c2nn(CCOCCO)c3ccccc23)=C1c1cn(-c2cccnc2)c2ccccc12 [Compound 106, 3-[1-[2-(2-hydroxyethoxy)ethyl]-1H-indazol-3-yl]-4-[1-(3-pyridinyl)-1H-indol-3-yl]-1H-pyrrole-2,5-dione] | 0.033 |  |  | 
CC(=O)OCCCn1nc(C2=C(c3cn(C)c4ccc(Cl)cc34)C(=O)NC2=O)c2ccccc21 [Compound 76, 3-[1-[3-(acetyloxy)propyl]-1H-indazol-3-yl]-4-(5-chloro-1-methyl-1H-indol-3-yl)-1H-pyrrole-2,5-dione] | 0.085 |  |  | 
CCn1cc(C2=C(c3nn(CCCN(C)C)c4ccccc34)C(=O)NC2=O)c2cc(C#N)ccc21 [Compound 98, 3-[4-[1-[3-(dimethylamino)propyl]-1H-indazol-3-yl]-2,5-dihydro-2,5-dioxo-1H-pyrrol-3-yl]-1-ethyl-1H-indole-5-carbonitrile] | 0.015 |  |  | 
CCn1cc(C2=C(c3nn(CCCN(C)C)c4ccccc34)C(=O)NC2=O)c2cccc(Cl)c21 [Compound 95, 3-(7-chloro-1-ethyl-1H-indol-3-yl)-4-[1-[3-(dimethylamino)propyl]-1H-indazol-3-yl]-1H-pyrrole-2,5-dione] | 0.06 |  |  | 
CCn1nc(C2=C(c3cn(CCCN4CCOCC4)c4ccccc34)C(=O)NC2=O)c2cc(Cl)ccc21 [Compound 86, 3-(5-chloro-1-ethyl-1H-indazol-3-yl)-4-[1-[3-(4-morpholinyl)propyl]-1H-indol-3-yl]-1H-pyrrole-2,5-dione] | 0.13 |  |  | 
CN(C)CCCn1nc(C2=C(c3cn(-c4cccs4)c4ccc(Cl)cc34)C(=O)NC2=O)c2ccccc21 [Compound 33, 3-[5-chloro-1-(2-thienyl)-1H-indol-3-yl]-4-[1-[3-(dimethylamino)propyl]-1H-indazol-3-yl]-1H-pyrrole-2,5-dione] | 0.07 |  |  | 

Other lines, results leading:

IC50 [1] [µM] | IC50 (PKC β-II) [µM] | IC50 (PKC γ) [µM] | IC50 (PKC α) [µM] | SMILES
0.21 |  |  |  | O=C1NC(=O)C(c2nn(CCCO)c3ccccc23)=C1c1cn(-c2ccccn2)c2ccccc12 [Compound 102, 3-[1-(3-hydroxypropyl)-1H-indazol-3-yl]-4-[1-(2-pyridinyl)-1H-indol-3-yl]-1H-pyrrole-2,5-dione]
0.155 | 0.004 | 0.038 | 0.047 | CN(CCO)CCCn1nc(C2=C(c3cn(-c4cccnc4)c4ccccc34)C(=O)NC2=O)c2ccccc21 [Compound 114, 3-[1-[3-[(2-hydroxyethyl)methylamino]propyl]-1H-indazol-3-yl]-4-[1-(3-pyridinyl)-1H-indol-3-yl]-1H-pyrrole-2,5-dione]
0.041 | 0.016 | 0.53 | 0.94 | Cn1cc(C2=C(c3nn(CCCN4CCOCC4)c4ccccc34)C(=O)NC2=O)c2cc(Cl)ccc21 [Compound 78, 3-(5-chloro-1-methyl-1H-indol-3-yl)-4-[1-[3-(4-morpholinyl)propyl]-1H-indazol-3-yl]-1H-pyrrole-2,5-dione]
0.014 |  |  |  | Cn1cc(C2=C(c3nn(CCCO)c4ccccc34)C(=O)NC2=O)c2cc(Cl)ccc21 [Compound 74, 3-(5-chloro-1-methyl-1H-indol-3-yl)-4-[1-(3-hydroxypropyl)-1H-indazol-3-yl]-1H-pyrrole-2,5-dione]
0.09 |  |  |  | CN(C)CCCn1nc(C2=C(c3cn(-c4ccccc4)c4ccc(Cl)cc34)C(=O)NC2=O)c2ccccc21 [Compound 48, 3-(5-chloro-1-phenyl-1H-indol-3-yl)-4-[1-[3-(dimethylamino)propyl]-1H-indazol-3-yl]-1H-pyrrole-2,5-dione]
0.2 |  |  |  | O=C1NC(=O)C(c2cn(-c3cccnc3)c3ccccc23)=C1c1[nH]nc2ccccc12 [Compound 118, 3-(1H-indazol-3-yl)-4-[1-(3-pyridinyl)-1H-indol-3-yl]-1H-pyrrole-2,5-dione]
0.27 |  |  |  | C=Cn1cc(C2=C(c3nn(CC(O)CN(C)C)c4ccc(Cl)cc34)C(=O)NC2=O)c2ccccc21 (stereo not drawn) [Compound 4, 3-[5-chloro-1-[3-(dimethylamino)-2-hydroxypropyl]-1H-indazol-3-yl]-4-(1-ethenyl-1H-indol-3-yl)-1H-pyrrole-2,5-dione]
0.075 |  |  |  | O=C1NC(=O)C(c2nn(CCO)c3ccccc23)=C1c1cn(-c2cccnc2)c2ccccc12 [Compound 110, 3-[1-(2-hydroxyethyl)-1H-indazol-3-yl]-4-[1-(3-pyridinyl)-1H-indol-3-yl]-1H-pyrrole-2,5-dione]
0.51 |  |  |  | CN(C)CCCn1nc(C2=C(c3cn(-c4ccncc4)c4ccccc34)C(=O)NC2=O)c2ccccc21 [Compound 32, 3-[1-[3-(dimethylamino)propyl]-1H-indazol-3-yl]-4-[1-(4-pyridinyl)-1H-indol-3-yl]-1H-pyrrole-2,5-dione]
0.096 |  |  |  | CCn1cc(C2=C(c3nn(CCCN(C)C)c4ccccc34)C(=O)NC2=O)c2ccc(Cl)cc21 [Compound 90, 3-(6-chloro-1-ethyl-1H-indol-3-yl)-4-[1-[3-(dimethylamino)propyl]-1H-indazol-3-yl]-1H-pyrrole-2,5-dione]
0.034 |  |  |  | CN(C)CCCn1nc(C2=C(c3cn(C)c4ccc(Cl)cc34)C(=O)NC2=O)c2ccccc21 [Compound 43, 3-(5-chloro-1-methyl-1H-indol-3-yl)-4-[1-[3-(dimethylamino)propyl]-1H-indazol-3-yl]-1H-pyrrole-2,5-dione]
